Test results published in patent publication US20260078103A1, “ISOQUINOLONES AS PI3K INHIBITORS” (OnKure, Inc., priority 2022, published 2026).
Where two headings read alike, the source gives them in different places.

Columns and labels:
Assay type in all cases: cell-based
[1] = tested on: SKBR3 cells express WT PI3Ka; test: In vitro cell proliferation, SKBR3 cells (CellTiter-Glo); conditions: inhibition of proliferation
Summary of the method: (§1)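 Proliferation was read by CellTiter-Glo luminescence after 72 h of exposure to 10-point compound dilutions at 37 °C and 5% CO2. T47D (RPMI, 10% FBS, insulin 0.2 units/mL) and SKBR3 (McCoys 5a, 10% FBS) cells were seeded at 1,500 cells/well. EC50 was fitted from inhibition relative to DMSO and 10 uM Alpelisib.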

[2] = tested on: T47D cells expressing mutant PI3Ka (H1047R); test: In vitro cell proliferation, T47D cells (CellTiter-Glo); conditions: inhibition of proliferation, read-out: Avg T-47D EC50
Summary of the method: as §1

[3] = tested on: phosphorylation of AKT (pAKT) in SKBR3 cells express WT PI3Ka; test: In vitro cell pAKT (Ser473) HTRF, SKBR3 cells; conditions: cellular pAKT
Summary of the method: (§2)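 pAKT (Ser473) was quantified by HTRF in lysates from cells exposed 6 h at 37 °C to 10-point compound series, with T47D in insulin-supplemented RPMI/10% FBS and SKBR3 in McCoy's 5a/10% FBS. Controls: 0.1% DMSO (high) and 10 uM alpelisib (low). IC50 from sigmoidal curve fitting.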

[4] = tested on: phosphorylation of AKT (pAKT) in T47D cells expressing mutant PI3Ka (H1047R); test: In vitro cell pAKT (Ser473) HTRF, T47D cells; conditions: cellular pAKT, T47D cells, mutant PI3Ka (H1047R), 6 hours, read-out: Avg T-47D IC50
Summary of the method: as §2

EC50 ([1]; Homo sapiens, SK-BR-3, 72 h) [µM]	EC50 ([2]; Homo sapiens, T47D, 72 h) [µM]	IC50 ([3]; Homo sapiens, SK-BR-3, 6 h) [µM]	IC50 ([4]; Homo sapiens, T47D, 6 h) [µM]	EC50 ([1]; 72 hours) [µM]	EC50 ([2]; 72 hours) [µM]	IC50 ([3]; 6 hours) [µM]	IC50 [4] [µM]	Structure (SMILES)
> 15	0.001 to 0.5	> 15	0.001 to 0.5	–	–	–	–	Cc1cc([C@@H](C)Nc2ccccc2C(=O)O)c2cc(N3CCN(C(C)C(F)(F)F)CC3)n(C)c(=O)c2c1 (single isomer, unassigned) [Example 278]
–	–	–	–	> 15	2 to 15	> 15	2 to 15	C[C@@H](Nc1cccc(F)c1C(=O)O)c1cc(F)cc2c(=O)n(C)c(-c3cnc(C(F)(F)F)nc3)cc12 [Example 372]
–	–	–	–	> 15	0.001 to 0.5	> 15	0.001 to 0.5	Cc1cc([C@@H](C)Nc2ccccc2C(=O)O)c2cc(N3CCN(CCC(F)(F)F)CC3)n(C)c(=O)c2c1 [Example 264]
–	–	–	–	> 15	0.001 to 0.5	> 15	0.001 to 0.5	C[C@@H](Nc1ccccc1C(=O)O)c1cc(F)cc2c(=O)n(C)c(C3CC3(F)F)cc12 (single isomer, unassigned) [Example 482]
–	–	–	–	> 15	2 to 15	> 15	2 to 15	Cc1cc(C(C)Nc2ccccc2C(=O)O)c2cc(-c3ccc(N4CCOCC4)nc3)n(C)c(=O)c2c1 (single isomer, unassigned) [Example 486]
> 15	–	> 15	–	–	> 15	–	> 15	Cc1cc(C(C)Nc2ccccc2C(=O)O)c2cc(C#Cc3ccccc3)n(C)c(=O)c2c1 (single isomer, unassigned) [Example 35, 2-((1-(2,7-dimethyl-1-oxo-3-(phenylethynyl)-1,2-dihydroisoquinolin-5-yl)ethyl)amino)benzoic acid]
–	–	–	–	> 15	0.001 to 0.5	> 15	0.5 to 2	Cc1cc([C@@H](C)Nc2ccc(F)nc2C(=O)O)c2cc(-c3cnc(C(F)(F)F)nc3)n(C)c(=O)c2c1 [Example 387]
–	–	–	–	> 15	0.001 to 0.5	> 15	0.001 to 0.5	Cc1cc([C@@H](C)Nc2ccccc2C(=O)O)c2cc(-c3cnc(CF)c(F)c3)n(C)c(=O)c2c1 [Example 289]
–	–	> 15	–	> 15	2 to 15	–	> 15	COCCC(=O)N1CCN(c2cc3c(C(C)Nc4ccccc4C(=O)O)cc(C)cc3c(=O)n2C)CC1 (single isomer, unassigned) [Example 112]
–	–	–	–	> 15	0.5 to 2	> 15	0.001 to 0.5	Cc1cc(C(C)Nc2ccccc2C(=O)O)c2cc(N3CCC(c4ccccc4)C3)n(C)c(=O)c2c1 (single isomer, unassigned) [Example 105]
–	–	–	–	2 to 15	0.001 to 0.5	> 15	0.001 to 0.5	Cc1cc(C(C)Nc2ccccc2C(=O)O)c2cc(N3Cc4cccnc4C3)n(C)c(=O)c2c1 (single isomer, unassigned) [Example 19, 2-((1-(3-(5,7-dihydro-6H-pyrrolo[3,4-b]pyridin-6-yl)-2,7-dimethyl-1-oxo-1,2-dihydroisoquinolin-5-yl)ethyl)amino)benzoic acid]
–	–	–	–	> 15	0.5 to 2	> 15	0.001 to 0.5	Cc1cc(C(C)Nc2ccccc2C(=O)O)c2cc(N3CC4(C3)CC(F)(F)C4)n(C)c(=O)c2c1 (single isomer, unassigned) [Example 81]
–	–	–	–	> 15	0.5 to 2	> 15	0.001 to 0.5	Cc1cc(C(C)Nc2ccccc2C(=O)O)c2cc(N3CC4(CCN(CC(F)(F)F)C4)C3)n(C)c(=O)c2c1 (stereo not shown) [Example 171]
> 15	0.001 to 0.5	> 15	0.001 to 0.5	–	–	–	–	Cc1cc([C@@H](C)Nc2ccccc2C(=O)O)c2cc(N3CCC(C)(C#N)C3)n(C)c(=O)c2c1 (stereo partly shown) [Example 243]
–	–	–	–	> 15	0.5 to 2	> 15	0.001 to 0.5	Cc1cc([C@@H](C)Nc2ccccc2C(=O)O)c2cc(N3CC(C)(C#N)C3)n(C)c(=O)c2c1 [Example 165]
–	–	–	–	> 15	0.001 to 0.5	> 15	0.001 to 0.5	Cc1cc(C(C)Nc2ccccc2C(=O)O)c2cc(N3CCN(C(=O)CC(C)C)CC3)n(C)c(=O)c2c1 (single isomer, unassigned) [Example 33, 2-((1-(2,7-dimethyl-3-(4-(3-methylbutanoyl)piperazin-1-yl)-1-oxo-1,2-dihydroisoquinolin-5-yl)ethyl)amino)benzoic acid]
> 15	0.001 to 0.5	> 15	0.001 to 0.5	–	–	–	–	Cc1cc([C@@H](C)Nc2ccccc2C(=O)O)c2cc(N3CCN(C)C(C(F)(F)F)C3)n(C)c(=O)c2c1 (single isomer, unassigned) [Example 301]

EC50 ([1]; Homo sapiens, SK-BR-3, 72 h) [µM]	EC50 ([2]; Homo sapiens, T47D, 72 h) [µM]	IC50 ([3]; Homo sapiens, SK-BR-3, 6 h) [µM]	IC50 ([4]; Homo sapiens, T47D, 6 h) [µM]	EC50 ([1]; 72 hours) [µM]	EC50 ([2]; 72 hours) [µM]	IC50 ([3]; 6 hours) [µM]	IC50 [4] [µM]	Structure (SMILES)
2 to 15	0.001 to 0.5	2 to 15	0.001 to 0.5	–	–	–	–	Cc1cc([C@@H](C)Nc2ccccc2C(=O)O)c2cc(N3CCN(c4nccnc4C)CC3)n(C)c(=O)c2c1 [Example 255]
2 to 15	0.5 to 2	> 15	0.001 to 0.5	–	–	–	–	C[C@@H](Nc1ccccc1C(=O)O)c1cc(F)cc2c(=O)n(C)c(-c3cnc(OCC(F)(F)F)c(F)c3)c(F)c12 [Example 569]
> 15	–	> 15	–	–	2 to 15	–	> 15	Cc1cc(C(C)Nc2ccccc2C(=O)O)c2cc(-c3ccc(C)nc3)n(C)c(=O)c2c1 (single isomer, unassigned) [Example 20, 2-((1-(2,7-dimethyl-3-(6-methylpyridin-3-yl)-1-oxo-1,2-dihydroisoquinolin-5-yl)ethyl)amino)benzoic acid]
–	–	–	–	> 15	> 15	> 15	0.5 to 2	Cc1cc(C(C)Nc2ccccc2C(=O)O)c2cc(C#Cc3cccc(Cl)c3)n(C)c(=O)c2c1 (single isomer, unassigned) [Example 144]
> 15	0.5 to 2	> 15	0.001 to 0.5	–	–	–	–	Cc1cc(C(C)Nc2ccccc2C(=O)O)c2cc(N3CC(Cl)C3)n(C)c(=O)c2c1 (stereo not shown) [Example 55]
> 15	0.001 to 0.5	> 15	0.001 to 0.5	–	–	–	–	Cc1cc([C@@H](C)Nc2ccccc2C(=O)O)c2cc(N3CC(F)(c4cccnc4)C3)n(C)c(=O)c2c1 [Example 192]
2 to 15	0.001 to 0.5	> 15	0.001 to 0.5	–	–	–	–	Cc1csc(N2CCN(c3cc4c([C@@H](C)Nc5ccccc5C(=O)O)cc(F)cc4c(=O)n3C)CC2)n1 [Example 453]
–	–	–	–	> 15	2 to 15	> 15	2 to 15	Cc1cc(C(C)Nc2ccccc2C(=O)O)c2cc(N3CCC4(CCN(CC(F)(F)F)C4)CC3)n(C)c(=O)c2c1 (single isomer, unassigned) [Example 97]
–	–	–	–	> 15	0.5 to 2	> 15	0.001 to 0.5	COC1(C)CN(c2cc3c(C(C)Nc4ccccc4C(=O)O)cc(C)cc3c(=O)n2C)C1 (single isomer, unassigned) [Example 213]
2 to 15	0.001 to 0.5	2 to 15	0.001 to 0.5	–	–	–	–	Cc1cc([C@@H](C)Nc2ccccc2C(=O)O)c2cc(N3CCN(c4cnc(C(F)(F)F)nc4)CC3)n(C)c(=O)c2c1 [Example 509]
–	–	–	–	> 15	2 to 15	> 15	2 to 15	COc1ccc(-c2cc3c(C(C)Nc4ccccc4C(=O)O)cc(C)cc3c(=O)n2C)cn1 (single isomer, unassigned) [Example 156]
2 to 15	0.001 to 0.5	2 to 15	0.001 to 0.5	–	–	–	–	Cc1cc([C@@H](C)Nc2ccc(Cl)nc2C(=O)O)c2cc(-c3cnc(C(C)C)nc3)n(C)c(=O)c2c1 [Example 329]
–	–	–	–	> 15	0.5 to 2	> 15	0.5 to 2	Cc1cc(C(C)Nc2ccccc2C(=O)O)c2cc(N3CC4CCCC(C4)C3)n(C)c(=O)c2c1 (stereo not shown) [Example 116]
2 to 15	0.001 to 0.5	> 15	0.001 to 0.5	–	–	–	–	C[C@@H](Nc1ccccc1C(=O)O)c1cc(F)cc2c(=O)n(C)c(-c3cnc(-c4cnc(C(F)(F)F)nc4)c(F)c3)cc12 [Example 574]
> 15	0.5 to 2	> 15	0.5 to 2	–	–	–	–	CC(=O)N1CCN(c2cc3c([C@@H](C)Nc4ccccc4C(=O)O)cc(C)cc3c(=O)n2C)CC1 [Example 498]
> 15	–	> 15	–	–	> 15	–	> 15	Cc1cc(C(C)Nc2ccccc2C(=O)O)c2cc(N3CC4(C3)CC(F)(F)C4)n(C)c(=O)c2c1 (single isomer, unassigned) [Example 80]

Structure (SMILES)	EC50 ([1]; Homo sapiens, SK-BR-3, 72 h) [µM]	EC50 ([2]; Homo sapiens, T47D, 72 h) [µM]	IC50 ([3]; Homo sapiens, SK-BR-3, 6 h) [µM]	IC50 ([4]; Homo sapiens, T47D, 6 h) [µM]	EC50 ([1]; 72 hours) [µM]	EC50 ([2]; 72 hours) [µM]	IC50 ([3]; 6 hours) [µM]	IC50 [4] [µM]
C[C@@H](Nc1cccc(F)c1C(=O)O)c1cc(F)cc2c(=O)n(C)c(N3C4CCC3CN(CC(F)(F)F)C4)cc12 [Example 398]	> 15	0.001 to 0.5	2 to 15	0.001 to 0.5	–	–	–	–
